# Data published in patent US10676462B2, “Quinoline derivative” (ONO PHARMACEUTICAL CO., LTD., priority 2013, dated 2020).
# Tests used:
# [1] = molecular target: T1, Ba/F3 Axl (Homo sapiens, UniProt P30530); assay: Proliferation suppression rate using mouse pro-B cell line (Ba/F3 Axl) stably expressing Axl; format: cell-based; settings: Ba/F3 Axl cells, 48 hours, CellTiter-Glo; read-out: IC50 value, proliferation suppression of Ba/F3 Axl
# T1 sequence (P30530 1-894): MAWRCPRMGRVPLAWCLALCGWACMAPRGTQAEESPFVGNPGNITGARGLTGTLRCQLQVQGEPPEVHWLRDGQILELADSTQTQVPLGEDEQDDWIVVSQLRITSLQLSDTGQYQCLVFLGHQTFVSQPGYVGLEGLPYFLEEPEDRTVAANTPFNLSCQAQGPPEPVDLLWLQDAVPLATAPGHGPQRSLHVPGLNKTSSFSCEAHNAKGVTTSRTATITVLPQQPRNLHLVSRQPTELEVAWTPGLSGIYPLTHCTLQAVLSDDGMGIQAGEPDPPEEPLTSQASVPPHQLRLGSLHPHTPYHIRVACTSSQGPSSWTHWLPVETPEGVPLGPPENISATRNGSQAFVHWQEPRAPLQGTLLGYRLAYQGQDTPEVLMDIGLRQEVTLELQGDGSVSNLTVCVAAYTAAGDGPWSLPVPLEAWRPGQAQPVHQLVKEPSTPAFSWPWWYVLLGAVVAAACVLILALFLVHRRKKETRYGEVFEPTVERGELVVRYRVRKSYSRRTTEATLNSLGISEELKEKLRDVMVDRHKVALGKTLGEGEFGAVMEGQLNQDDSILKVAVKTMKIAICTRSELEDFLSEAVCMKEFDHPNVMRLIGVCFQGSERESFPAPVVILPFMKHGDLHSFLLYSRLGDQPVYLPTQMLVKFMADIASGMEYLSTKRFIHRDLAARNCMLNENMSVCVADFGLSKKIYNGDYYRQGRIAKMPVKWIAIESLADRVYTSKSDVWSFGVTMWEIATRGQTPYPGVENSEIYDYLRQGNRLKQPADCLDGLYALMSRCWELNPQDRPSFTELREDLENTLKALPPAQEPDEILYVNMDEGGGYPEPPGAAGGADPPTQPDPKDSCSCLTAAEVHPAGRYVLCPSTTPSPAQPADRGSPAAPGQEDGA
# Procedure: Biological Example 2: Measurement of Proliferation Suppression Rate by Using Mouse Pro-B Cell Line (Ba/F3 Axl) Stably Expressing Axl
# A 0.1 mmol/L DMSO solution of the test compound was dispensed into a 96-well plate, and a 3-fold dilution series was prepared using DMSO. DMSO solutions of test compounds, having various concentrations, were further 500-fold diluted with a RPMI1640 medium (containing 10% HI-FBS, 1% penicillin) and a diluted solution of the test compound having […] with respect to the final concentration was prepared. In each well of the 96-well plate (BD Biosciences) for measurement, 50 μL of a RPMI medium was added to the Blank group, 50 μL of a RPMI medium containing 0.2% DMSO was added to the medium group, and 50 μL of the diluted solution of the test compound was added to the test compound group, respectively. Ba/F3 Axl was diluted with a medium to have a density of 2×10^5 cells/mL to prepare a cell suspension. In each well of the 96-well plate for measurement, 50 μL each of the RPMI medium was added to the Blank group, and 50 μL each of the cell suspension to the medium group and the test compound group, respectively, and the groups were stood still at 37° C. at 5% CO2 for 48 hours. After standing still, Relative Light Unit (RLU) was measured by using CELLTITER-GLO (registered trademark) LUMINESCENT CELL VIABILITY ASSAY (Promega). The measurement was carried out according to the attached instruction. To each well, 100 μL each of light-emitting solution was added. The plate was stirred at room temperature for 3 min and then stool still at room temperature with light shielded for 10 min, and RLU was measured by using Microplate Reader (SpectraMax M5e, Molecular Devices). The average values of RLU of the Blank group and the medium group were respectively calculated, and the proliferation suppression rate of the test compound group was calculated. Proliferation suppression rate (%)={1−(RLU of test compound group−A)/(B−A)}×100 [Math. 2] A: average value of RLU of Blank group B: average value of RLU of medium group
# A value of 50% inhibition rate (IC50 value) of the test compound was calculated from the inhibition curve based on the inhibition rate in each concentration of the test compound.
# [2] = molecular target: KDR (Homo sapiens, UniProt P35968); assay: Evaluation of kinase selectivity (in vitro test), KDR; format: biochemical; settings: Axl selective inhibitory activity with respect to KDR, ratio of IC50 values
# Chain of KDR (P35968 20-1356): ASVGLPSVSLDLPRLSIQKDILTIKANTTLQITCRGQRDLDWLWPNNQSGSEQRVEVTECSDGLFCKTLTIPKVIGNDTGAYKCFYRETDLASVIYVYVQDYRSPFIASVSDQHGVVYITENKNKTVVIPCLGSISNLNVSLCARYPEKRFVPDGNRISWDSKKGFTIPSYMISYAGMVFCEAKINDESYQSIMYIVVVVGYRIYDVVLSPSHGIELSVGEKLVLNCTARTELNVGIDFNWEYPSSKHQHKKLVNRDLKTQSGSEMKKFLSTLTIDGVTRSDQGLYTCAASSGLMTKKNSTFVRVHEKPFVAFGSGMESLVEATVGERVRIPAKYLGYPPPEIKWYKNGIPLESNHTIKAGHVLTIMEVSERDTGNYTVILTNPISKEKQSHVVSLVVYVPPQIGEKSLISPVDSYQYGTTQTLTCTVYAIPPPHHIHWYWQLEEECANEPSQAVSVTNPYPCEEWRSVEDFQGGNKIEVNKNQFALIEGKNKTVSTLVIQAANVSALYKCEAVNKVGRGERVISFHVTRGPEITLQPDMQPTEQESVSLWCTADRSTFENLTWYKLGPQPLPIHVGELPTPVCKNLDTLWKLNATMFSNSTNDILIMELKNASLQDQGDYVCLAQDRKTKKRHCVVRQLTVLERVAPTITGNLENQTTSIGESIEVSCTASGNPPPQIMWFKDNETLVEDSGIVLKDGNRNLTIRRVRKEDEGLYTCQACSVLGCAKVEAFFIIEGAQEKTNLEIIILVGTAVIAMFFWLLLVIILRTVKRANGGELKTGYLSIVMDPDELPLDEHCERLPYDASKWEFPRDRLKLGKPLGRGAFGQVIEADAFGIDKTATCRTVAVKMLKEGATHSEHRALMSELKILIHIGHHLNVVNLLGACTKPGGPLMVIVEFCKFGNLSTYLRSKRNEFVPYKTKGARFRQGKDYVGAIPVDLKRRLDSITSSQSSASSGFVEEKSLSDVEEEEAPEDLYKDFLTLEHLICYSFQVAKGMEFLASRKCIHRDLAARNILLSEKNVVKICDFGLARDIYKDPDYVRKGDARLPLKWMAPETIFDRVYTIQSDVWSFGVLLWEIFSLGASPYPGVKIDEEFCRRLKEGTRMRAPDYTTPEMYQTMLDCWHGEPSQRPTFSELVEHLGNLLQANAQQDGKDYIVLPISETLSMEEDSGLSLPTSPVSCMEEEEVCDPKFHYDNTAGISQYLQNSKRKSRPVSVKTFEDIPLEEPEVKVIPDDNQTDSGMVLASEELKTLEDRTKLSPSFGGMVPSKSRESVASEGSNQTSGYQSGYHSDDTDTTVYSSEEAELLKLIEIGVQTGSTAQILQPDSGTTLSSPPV
# Procedure: Biological Example 3: Evaluation of Kinase Selectivity (In Vitro Test)
# Similar to Biological Example 1, values of 50% inhibition rate (IC50 value) with respect to various kinases (KDR, DDR1, FLT4, and ROS) of the test compound were measured. The Axl selective inhibitory activity of the test compound with respect to kinases, for example, KDR, was calculated based on the above-mentioned ratio of the IC50 values. As the test compound, for the compound of the present invention, the compounds of Examples 5, 5(1), 17(2), and 23(2) were used, and for the comparative compounds, the compound of Example 5 (Comparative compound C) and the compound of Example 92 (Comparative compound D) described in Patent Literature 5, having the following structure, were used.
Compound,GI50 [1],KDR [IC50]/Axl [IC50] [2]
"O=C1CCCc2c1cc(C(=O)Nc1ccc(Oc3ccnc4cc(OCCCN5CCOCC5)ccc34)cn1)c(=O)n2-c1ccccc1 [Example 17(2), N-[5-({7-[3-(4-morpholinyl)propoxy]-4-quinolinyl}oxy)-2-pyridinyl]2,5-dioxo-1-phenyl-1,2,5,6,7,8-hexahydro-3-quinolinecarboxamide]",1.2 nM,about 650 times
"COc1cc2nccc(Oc3ccc(NC(=O)c4cc5c(n(-c6ccccc6)c4=O)CCCC5=O)nc3)c2cc1OC [Example 5, N-{5-[(6,7-dimethoxy-4-quinolinyl)oxy]-2-pyridinyl}-2,5-dioxo-1-phenyl-1,2,5,6,7,8-hexahydro-3-quinolinecarboxamide]",0.7 nM,about 900 times
"COc1cc2nccc(Oc3ccc(NC(=O)c4cc5c(n(-c6ccccc6)c4=O)CCCC5=O)c(C)c3)c2cc1OC [Example 23(2), N-{4-[(6,7-dimethoxy-4-quinolinyl)oxy]-2-methylphenyl}-2,5-dioxo-1-phenyl-1,2,5,6,7,8-hexahydro-3-quinolinecarboxamide]",1.2 nM,about 520 times
"COc1cc2nccc(Oc3ccc(NC(=O)c4cc5c(n(-c6ccccc6)c4=O)CC(C)(C)CC5=O)nc3)c2cc1OC [Example 5(1), N-{5-[(6,7-dimethoxy-4-quinolinyl)oxy]-2-pyridinyl}-7,7-dimethyl-2,5-dioxo-1-phenyl-1,2,5,6,7,8-hexahydro-3-quinolinecarboxamide]",0.8 nM,about 1800 times
